In US5709816A, “Singlet oxygen quenchers and external compositions containing the same” (Kao Corporation, priority 1899, dated 1998):

What was measured:
[1] = tested on: skin of hairless mice; assay: Inhibition of wrinkle formation in hairless mice (visual wrinkle index); assay type: in vivo, hairless mouse (HR/ICR); settings: 5 wt. % in ethanol, 80 μl; UV-B five times per week, sixteen weeks; scale 1 (no wrinkles) to 4; control (ethanol) 3.78 ± 0.08
Protocol: (1) Inhibition of wrinkle formation in hairless mice.
(§1) To each hairless mouse (HR/ICR, 6 weeks old when the test started), a test substance (5 wt. %, in ethanol) was applied. (80 μl). Approximately 10 minutes later, UV-B was irradiated thereto using 6 bulbs of health lamps (SL20-SLE, Toshiba) so that the dose per irradiation was not greater than 1 MED. Irradiation was repeated five times per week over sixteen weeks. While the irradiation energy was measured using a UV-radiometer (UVR-305/S65D, Tokyo Optical K.K.) so that the dose per irradiation was not greater than 1 MED, energy was irradiated at an intensity of 0.28 mW/cm^2, with the total dose. 100 mJ/cm^2. As a control, a case where only ethanol was applied was similarly tested in a manner performed on the test substances.
After completion of the testing, the level of wrinkle formation was visually determined using the following standards (wrinkle indices).
1: No wrinkles are formed
2: Small amounts of wrinkles are formed
3: Moderate amounts of wrinkles are formed
4: Considerable amounts of wrinkles are formed

[2] = tested on: skin of hairless mice; assay: Analysis of wrinkles in hairless mice (image analysis of skin replicas); assay type: in vivo, hairless mouse (HR/ICR); settings: 5 wt. % in ethanol, 80 μl; UV-B sixteen weeks; shadow area of skin replicas, 30°; control (ethanol) 6.46 ± 0.68
Protocol: as §1
In order to analyze the wrinkles formed in the above step (1) in detail, replicas of different skin areas (3 replicas per mouse) each having a round shape with a diameter of 1 cm were obtained using a hydrophilic exaflex, hydrophilic vinyl silicone imaging agent. Each replica was placed horizontally and lightened from an angle of 30°. The area of shadows formed by wrinkles was analyzed as the area ratio using an image analyzing apparatus.

Structure (SMILES)	Wrinkle index [1]	Area ratio of image analysis [2] [%]
CCCCC(CC)CN(Cc1ccco1)Cc1ccco1 (centres unmarked) [Compound (23), N,N-bisfurfuryl-2-ethylhexylamine]	2.17 ± 0.05	3.23 ± 0.18
CCOC(=O)CN(Cc1ccco1)Cc1ccco1 [Compound (24), ethyl N,N-bisfurfurylglycine]	2.56 ± 0.08	3.27 ± 0.29
Cc1ccc(CN(Cc2ccc(C)o2)c2ccccc2)o1 [Compound (25), N,N-bis(5-methylfurfuryl)phenylamine]	2.35 ± 0.34	3.32 ± 0.21
COc1ccc(N(Cc2ccc(C)o2)Cc2ccc(C)o2)cc1 [Compound (26), N,N-bis(5-methylfurfuryl)-p-methoxyphenylamine]	2.44 ± 0.33	3.69 ± 0.59
COc1ccc(N(Cc2ccc(C)o2)Cc2ccc(C)o2)cc1OC [Compound (27), N,N-bis(5-methylfurfuryl)-3,4-dimethoxyphenylamine]	2.22 ± 0.17	3.73 ± 0.29
COc1cc(N(Cc2ccc(C)o2)Cc2ccc(C)o2)cc(OC)c1OC [Compound (28), N,N-bis(5-methylfurfuryl)-3,4,5-trimethoxyphenylamine]	2.43 ± 0.06	3.24 ± 0.33
Cc1ccc(N(Cc2ccc(C)o2)Cc2ccc(C)o2)cc1 [Compound (29), N,N-bis(5-methylfurfuyl)-4-methylphenylamine]	2.28 ± 0.06	3.64 ± 0.12
Cc1ccc(CN(Cc2ccc(C)o2)c2ccccc2C)o1 [Compound (30), N,N-bis(5-methylfurfuryl)-2-methylphenylamine]	2.51 ± 0.43	3.39 ± 0.47
COc1ccc(N(Cc2ccco2)Cc2ccc(C)o2)cc1 [Compound (31), N-furfuryl-N-(S-methylfurfuryl)-4-methoxyphenylamine]	2.49 ± 0.20	3.30 ± 0.17
CC(=O)Oc1c(C)c(C)c2c(c1C)CCC(C)(CCCC(C)CCCC(C)CCCC(C)C)O2 (stereo not drawn) [α-Tocopheryl acetate, reference compound]	3.28 ± 0.23	4.67 ± 0.48
